Measurements published in patent US5243027A, “Method of preparing angiotensin converting enzyme inhibitors” (Unitika, Ltd., priority 1990, dated 1993).
No end group written: not given here.

Target: T1, angiotensin converting enzyme (Oryctolagus cuniculus, UniProt P12822)
T1 construct: The supernatant was dialyzed against the same buffer to remove low-molecular weight substances resulting in an angiotensin converting enzyme solution; tissue Sigma Co; host or cells: rabbit lung (acetone-dried preparation)
T1 sequence (P12822 34-1310): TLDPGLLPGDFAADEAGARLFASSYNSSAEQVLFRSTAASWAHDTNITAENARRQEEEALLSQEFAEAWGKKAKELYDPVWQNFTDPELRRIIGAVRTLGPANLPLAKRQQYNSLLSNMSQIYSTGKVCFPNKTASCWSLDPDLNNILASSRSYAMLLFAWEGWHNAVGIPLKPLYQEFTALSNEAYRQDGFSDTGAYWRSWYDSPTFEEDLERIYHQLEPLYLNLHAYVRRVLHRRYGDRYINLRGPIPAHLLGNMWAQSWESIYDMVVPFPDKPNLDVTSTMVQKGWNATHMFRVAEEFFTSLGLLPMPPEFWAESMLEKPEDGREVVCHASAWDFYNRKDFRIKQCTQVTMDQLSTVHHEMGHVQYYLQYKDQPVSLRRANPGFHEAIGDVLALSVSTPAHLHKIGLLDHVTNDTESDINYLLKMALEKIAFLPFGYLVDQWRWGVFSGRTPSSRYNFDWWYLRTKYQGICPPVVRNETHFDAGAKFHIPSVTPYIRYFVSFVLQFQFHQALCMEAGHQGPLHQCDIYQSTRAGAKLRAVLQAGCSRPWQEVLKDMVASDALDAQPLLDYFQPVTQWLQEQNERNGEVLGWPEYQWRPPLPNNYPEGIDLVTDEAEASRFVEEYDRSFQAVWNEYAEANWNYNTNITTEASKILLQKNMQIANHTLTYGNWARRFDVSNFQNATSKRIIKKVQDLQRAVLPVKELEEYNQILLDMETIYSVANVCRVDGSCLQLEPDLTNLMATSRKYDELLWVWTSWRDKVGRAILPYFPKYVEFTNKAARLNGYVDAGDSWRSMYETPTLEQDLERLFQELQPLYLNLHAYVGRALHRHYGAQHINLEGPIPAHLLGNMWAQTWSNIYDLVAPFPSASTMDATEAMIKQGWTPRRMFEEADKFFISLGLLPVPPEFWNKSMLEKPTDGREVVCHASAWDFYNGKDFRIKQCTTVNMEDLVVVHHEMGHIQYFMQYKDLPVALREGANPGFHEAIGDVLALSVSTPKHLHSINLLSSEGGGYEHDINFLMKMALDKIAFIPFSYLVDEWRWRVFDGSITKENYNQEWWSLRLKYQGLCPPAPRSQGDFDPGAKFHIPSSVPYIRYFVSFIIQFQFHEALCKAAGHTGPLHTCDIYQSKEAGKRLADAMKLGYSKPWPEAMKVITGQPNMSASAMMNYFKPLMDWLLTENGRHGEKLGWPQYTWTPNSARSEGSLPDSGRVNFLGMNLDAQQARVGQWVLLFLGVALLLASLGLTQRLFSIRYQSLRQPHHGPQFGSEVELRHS
Assay: Determination of angiotensin converting enzyme inhibitory activity (method of Cushmann et al., hippuryl-L-histidine-L-leucine substrate)
Assay type: biochemical
Details: rabbit lung enzyme, 37° C., 30 minutes, pH 8.3; peptides isolated from Bacillus stearothermophilus hydrolysate; read-out: IC50 (concentration of the sample showing 50% inhibition) (converted)
Experimental: Angiotensin converting enzyme inhibitory activity during isolation and purification was determined using the method of Cushmann et al., Biochem. Pharacol., Vol. 20, pp. 1637-1648 (1971).
A commercially available acetone-dried preparation of rabbit lungs (product of Sigma Co.) was dissolved in a 50 mM potassium phosphate buffer solution (pH=8.3) at 4° C. and the solution was centrifuged at 37,000×g for 30 minutes. The supernatant was dialyzed against the same buffer to remove low-molecular weight substances resulting in an angiotensin converting enzyme solution.
Hippuryl-L-histidine-L-leucine (product of Peptide Kenkyusho) was added to a 0.1M potassium phosphate buffer solution (pH=8.3) containing 0.3M NaCl to prepare a 2.5 mM enzyme substrate solution. The above-prepared angiotensin converting enzyme, water and a test sample were added to the substrate solution in a final volume of 0.25 ml and the system was allowed to react at 37° C. for 30 minutes. Then, 0.25 ml of 1N HCl was added thereto to stop the reaction and 1.5 ml of ethyl acetate was added to extract released hippuric acid. A 1 ml aliquot of the ethyl acetate extract was evaporated to dryness. To the residue was added 1 ml of distilled water and the absorbance at 228 nm was measured to determine the amount of hippuric acid.
Percent inhibition was calculated from the above-measured absorbance (A) and an absorbance of a blank (B) according to the following equation: [formula] The concentration of the sample showing 50% inhibition was taken as IC50.

IC50 [µM]	Sequence
6.69	GKMVKVVSWY [(b), Gly-Lys-Met-Val-Lys-Val-Val-Ser-Trp-Tyr]
35	AYIASKGL [(c), Ala-Tyr-Ile-Ala-Ser-Lys-Gly-Leu]
65.7	GKEIIVKAER [(a), Gly-Lys-Glu-Ile-Ile-Val-Lys-Ala-Glu-Arg]
